Experimental findings from a melting point compilation (Tetko et al.; mined from patent text by program, amines drawn as free bases though some values may be those of a salt) are described below.

Residues, ends and D or L forms follow the SMILES beside them. *: point of attachment. Piv = CC(C)(C)C(=O)* A value given as a limit tells only on which side of the number the result lay.

`O=c1ccn(CCO)c(C(O)c2cccnc2)c1O` (configuration not stated) had a melting point of 189 to 190 °C.

Compound `CCCCCCCCCCCCCCCCOCC(CC(CCCCCCCCCCCCCC)C(=O)NCCO)OCc1ccccc1` (configuration not stated) yielded a melting point of 39 to 40 °C. The result for `COc1cc2c(c3ccccc13)N(C(C)=O)c1ccccc1S2` reads 208 to 209 °C; that for `CCCCc1csc2ccc([N+](=O)[O-])cc12`, 82 to 83 °C; that for `COC(=O)CCCCCOc1ccc(NC(=O)CCCCCO)cc1`, 73 to 75.5 °C.

`CCOC(=O)c1ccc(C2=NOC(c3cc(Cl)cc(Cl)c3)(C(F)(F)F)C2)cc1OC` (configuration not stated) yielded a melting point of 142 to 144 °C. In turn, `COc1ccc(C(=C/C=C/C(=O)Oc2ccc([N+](=O)[O-])cc2)c2ccc(OC)cc2)cc1` registered a melting point of 121 to 123 °C.

With `O=c1c2ccccc2[nH]n1CSc1ccccc1`, the melting point was in the range of 167 to 168 °C.

Regarding `CCCc1nc(C(C)(C)O)c(C(=O)OCC)n1Cc1ccc(-c2ccccc2C(N)=O)cc1`, the melting point is 148 to 151 °C. Compound `CC(=O)SC[C@@H](C)C(=O)N1C(=O)N(C)C[C@H]1C(=O)OC(C)(C)C` returned a melting point of 104 °C. The result for `OCCNc1nc2ccccc2o1` reads 162 to 164 °C; that for `COC(=O)CCNCC1CC2c3cc(C(C)(C)C)cc4[nH]cc(c34)CC2N(C)C1` (configuration not stated), 153 to 157 °C. The result for `CNCc1ccc([C@H]2CC[C@@H](N(C)C(=O)c3ccc(Cl)cc3)CC2)cc1` reads 110 to 112 °C; that for `COC(=O)SC1C2=C(CCCC2)C(=O)N1c1ccc(Cl)cc1F` (configuration not stated), 80 to 81 °C; that for `CCOC(=O)c1c(NCc2ccccc2)n[nH]c1C`, 149 to 159 °C.

In turn, `CCN(CC)c1ccc2cc([N+](=O)[O-])c(=O)oc2c1` displayed a melting point of 193 to 195 °C.

As for `COC(=O)c1ccc2c(=O)c3ccccc3ccc2c1`, the melting point was 115 to 116 °C. The result for `CCOC=Nc1c(S(=O)C(F)(F)F)c(C#N)nn1-c1c(Cl)cc(C(F)(F)F)cc1Cl` (configuration not stated) reads 63 °C; that for `CCNC(=O)[C@@H]1CCCN1C(=O)[C@H](C)NC(=O)C(C)(C)C` (Piv-Ala-Pro-NHEt), 94 to 96 °C. The result for `CCOc1ccc2c(c1)C(C)(c1cc(N)ccc1Cl)C(=O)N2` (configuration not stated) reads 166 °C. The result for `Cc1ccn(-c2ccc(C(=O)N3Cc4ccnn4Cc4ccccc43)c(Cl)c2)n1` reads 187 to 188 °C; that for `CCCOCCOc1ccc(-c2ccc3c(c2)C=C(C(=O)OC)CCS3(=O)=O)cc1`, 105 to 107 °C. Compound `CC(C)(C)OC(=O)N1CCCN(c2ccc([N+](=O)[O-])cc2C#N)CC1` returned a melting point of 98 °C. The compound `COc1cc2c(c(Cl)c1Cl)C(=O)C(C)(c1ccccc1)C2` (configuration not stated) came in with a melting point of 161 to 163 °C. The result for `CCOc1ccc([N+](=O)[O-])c(C)c1` reads 41 to 43 °C; that for `CCOC(=O)c1sc(SC(C)C)c2c1CCC(N=[N+]=[N-])C2=O` (configuration not stated), 118 to 119 °C. Regarding `COC(=O)Cc1cccc(OC)c1OCCCc1cn(-c2ccc(C(=O)O)nn2)nc1C(C)C`, the melting point fell in the range of 146 to 147 °C. The result for `CC(C)(O)Cn1c(CO)nc2c(N)nc3cc(CCCNS(C)(=O)=O)ccc3c21` reads 202 to 205 °C.

Consider `CCOC(=O)c1ncn(-c2nc(C)cs2)c1N`, for which the melting point lay within 152 to 155 °C.

Take `CN(Cc1ccccc1)C(=O)c1cc2ccccc2c(-c2ccccc2Cl)n1`: the melting point came to 128 °C. The result for `O=C(ON1C(=O)CCC1=O)c1ccccn1` reads 174 to 175 °C; that for `Cc1cc(C2=NNC(=O)CC2)ccc1CCCCNC(=O)c1cccnc1`, 160 to 161 °C; that for `N#Cc1ccc(-c2sc(N3C(=O)c4ccccc4C3=O)c(C(=O)c3ccc(Cl)cc3)c2CBr)cc1`, 211 to 214 °C.

On to `COc1cc(OC)c(-c2cccn2C(=O)OC(C)(C)C)cc1/C=C/C(=O)c1ccc(C(=O)O)cc1`, for which the melting point lay within 205 to 207 °C. The result for `C=Cc1cc(C)c(C(=O)N=C(N)N)cc1S(C)(=O)=O` reads 223 to 226 °C. The result for `O=C1c2ccc(OCCN3CCOCC3)cc2C(=O)c2ccc(OCCN3CCOCC3)cc21` reads 200 to 201 °C; that for `CNC(=O)c1cc(-c2cccc3nc(Nc4cc(OC)c(OC)c(OC)c4)oc23)cs1`, 260 to 262 °C. The compound `Cc1oc(-c2cccs2)nc1COc1ccc(CCCn2ccnc2)cc1` displayed a melting point of 102 to 103 °C. The result for `CCOC(=O)C=Cc1cc2cc(OC)ccc2nc1Cl` reads 113 to 114 °C. The result for `O=C(Nc1ccc2ccc(Cl)nc2n1)c1ccccc1` reads 198 °C; that for `Cc1csc(-c2ccc3c(=O)n(CC(C)C)c(CN)c(-c4ccccc4)c3c2)n1`, 162 to 163 °C; that for `Cn1nc(C2CCN(CCn3c(=O)[nH]c4ccccc4c3=O)CC2)c2ccc(F)cc21`, 250 °C. `CCOC(=O)c1nn(Cc2ccc(Cl)c(Cl)c2)c(-c2ccc(Cl)cc2)c1C` displayed a melting point of 118 °C. The result for `Cc1cc(C)cc(OC(C)(C)C(=O)O[C@H]2C[C@H](O)C=C3C=C[C@H](C)[C@H](CC[C@@H]4C[C@@H](O)CC(=O)O4)[C@H]32)c1` reads 129 to 131 °C. The result for `O=C(c1ccc(I)cc1)c1ccc2[nH]c(=O)cc(-c3cccc(Cl)c3)c2c1` reads 251 °C; that for `COc1ccccc1N1CCN(CCCOc2cc(C(=O)c3cc4ccccc4[nH]3)ccc2OCc2ccc(C)cc2)CC1`, 126 to 128 °C. Regarding `Nc1nc2c(s1)CN(C(=S)NC(=O)c1ccccc1)CC2`, the melting point lay within 158 to 160 °C.

In turn, `OCCc1ccc(N2CCOCC2)cc1` yielded a melting point of 57 °C. `CC(C)N(CCN1C(=O)/C(=N/NC(N)=O)c2ccc(Cl)cc21)C(C)C` returned a melting point of 205 to 208 °C. `CCCCN1CCC(CNC(=O)c2ccc(N)n3c(Cl)c(CC)nc23)CC1` had a melting point of 86 to 90 °C. The compound `COCCNCc1ccc(-c2cc3ncnc(Nc4ccc5[nH]ccc5c4)c3s2)cc1` gave a melting point of 170 to 190 °C. The compound `CCCOc1ccc(S(=O)(=O)N2CCN(CC)CC2)cc1-c1nc2cc3ncn(Cc4ccccc4Cl)c3cc2c(=O)[nH]1` displayed a melting point of 225 to 226 °C. The result for `Cc1ccc2ccccc2c1N(C(=O)CO)C1CCOC1=O` (configuration not stated) reads 191 to 195 °C; that for `CCCCOc1cc2cc(C(=O)OC)c(C(=O)OC)c(-c3ccncc3)c2cc1OC`, 149 to 151 °C; that for `O=C1c2cccc(SCc3ccccc3)c2C(=O)c2cccc(SCc3ccccc3)c21`, 281 to 282 °C. The result for `CC1(C)CCC(C)(C)c2cc(C#Cc3ccc(CN)cc3)ccc21` reads 84 to 88 °C. `COc1ccc(O)c(C(=O)NCCc2ccc([N+](=O)[O-])cc2)c1` came in with a melting point of 200 °C. The result for `COc1cc2ncnc(N3CCCCCc4ccccc43)c2cc1OC` reads 204 to 207 °C; that for `CC(C)C(NS(=O)(=O)c1ccc(-c2cccc(CNC(=O)c3nc4ccccc4c(=O)[nH]3)c2)cc1)C(=O)O` (configuration not stated), 141 to 143 °C.

Compound `Cc1ccc(S(=O)(=O)N2C=Cc3cccc(-n4cccc4)c3C2C#N)cc1` (configuration not stated) displayed a melting point of 160 °C. The result for `COc1ccc2nc(-c3ccc(OC)c(F)c3)cc(C#N)c2c1` reads 189 to 190 °C. The result for `NC(=O)c1ccc(-c2ccc3[nH]c(=O)ccc3c2)cc1` reads greater than 320 °C. `CC1CC=C(c2ccc(C(C)C(=O)O)cc2)CC1` (configuration not stated): the melting point lay within 100 to 104 °C.

Compound `CN1C(=O)CN(CCc2ccccc2)C1=O` registered a melting point of 113 to 114 °C. The result for `O=C(O)CC1CCC(CCNS(=O)(=O)c2ccc(Br)cc2)CC1` (configuration not stated) reads 124 to 126 °C; that for `O=C(O)CCCCNCc1cc2cc3c(cc2c2cc(OCc4ccccc4)ccc12)OCO3`, 197 to 199 °C. Turning to `COc1ccc(N2CCOCC2)c2sc(C(=O)NCc3ccccc3)nc12`, the melting point is 156 to 158 °C. The result for `O=C(O)c1ccc(C(=O)N2Cc3cccn3Cc3ccccc32)c(Cl)c1` reads 198 to 199 °C; that for `Cc1cc(OCCC#Cc2ccc(OC(F)(F)F)cc2)ccc1OC(C)(C)C(=O)O`, 62 to 71 °C. For the compound `N#Cc1ccc(-c2ccc(-c3nc4cc(C#N)ccc4[nH]3)cc2)nc1`, the melting point is 346 to 347 °C. The result for `O=CN1CCC(c2nn(-c3ccc(F)cc3)c3ccccc23)CC1` reads 128 to 130 °C; that for `COCc1c(C(=O)OC)c2cc(OC)ccc2n1C`, 89.2 to 91 °C.

For `CC(=O)Nc1ccc(/C=C/C(=O)O)cn1`, the melting point was 291 to 292 °C. For the compound `COc1ccc(C(CCC(=O)c2ccccc2)C(=O)c2ccc(OCc3ccccc3)cc2)cc1` (configuration not stated), the melting point was in the range of 76 to 78 °C. The result for `CCOC(=O)c1ccc(NCCCOc2cccc3ccccc23)cc1` reads 93 to 94 °C; that for `CN[C@H]1CCN(c2c(F)cc3c(=O)n(NC)c(=O)n(C4CC4)c3c2Cl)C1`, 77 to 79 °C. Compound `CN(Cc1cc2ccccc2n1C)C(=O)/C=C/c1ccc(NC(=O)CCC(N)=O)nc1` came in with a melting point of 225 to 227 °C. The result for `O=C(Nc1ccncc1)c1cc2ccnc(Cl)c2[nH]1` reads greater than 320 °C; that for `COc1cccc(CN[C@H](C)c2ccc([N+](=O)[O-])cc2)c1O`, 112 to 114 °C.

`CCn1ncc2cc3c(nc21)CCc1ccccc1C3=O`: the melting point lay within 88 to 90 °C. Consider `COc1ccc(Nc2ncc(Br)c(Nc3ccc(OC)c(OC)c3OC)n2)c(OC)c1OC`, for which the melting point fell in the range of 186 to 191 °C.

`CCOC(=O)c1cn(NCCC=O)c2nc(C)ccc2c1=O` returned a melting point of 175 to 178 °C. As for `O=C1NCC2(CCN(CC(O)COc3cccc4ccccc34)CC2)O1` (configuration not stated), the melting point was 137 to 140 °C. In turn, `CCOC(=O)c1ccc(COc2cc(O)c(C(C)=O)cc2CC)cc1O` displayed a melting point of 145 to 146 °C. The result for `Cc1ccc(C(C)(C)C)c(O)c1-c1nc2cc(C#N)ccc2[nH]1` reads 212 to 215 °C. Compound `CON=C(C(=O)O)c1cccc(OCc2ccccc2Cl)c1OCc1ccccc1Cl` showed a melting point of 97 to 99 °C. The result for `COc1cc(COc2nn(C)cc2CO)ccc1OCc1nc(-c2ccccc2)oc1C` reads 108 to 109 °C.

As a reminder, the melting point is the temperature, or range, at which the solid turns liquid.
